Patent publication US20250195537A1, “PSYCHEDELIC DRUG TREATMENT OF NEUROPSYCHIATRIC DISORDERS AND CEREBRAL PALSY” (priority 2021, published 2025)

Tests used:
[1] = Case reports: patients with depression given ketamine with or without an anxiolytic; type: in vivo, human
[2] = cited from earlier work
[3] = Case report: patient with depression and suicidal ideation given ketamine with or without intranasal oxytocin; type: in vivo, human
[4] = Case report: patient with muscle spasm associated with cerebral palsy given intramuscular ketamine; type: in vivo, human; conditions: intramuscular ketamine 0.2-1.2 mg/kg
[5] = ketamine infusions, benzodiazepine users, Albott et al., 2017

Cc1nnc2n1-c1ccc(Cl)cc1C(c1ccccc1)=NC2 [alprazolam]
improvement in depression ([1]; same patient, 0.5 mg alprazolam before the same dose of ketamine): significant improvement in depression

CNC1(c2ccccc2Cl)CCCCC1=O (centres unmarked) [ketamine]
therapeutic benefit ([1]; patient with depression, ketamine alone): did not benefit therapeutically
antidepressant effect ([1]; same patient, ketamine without lorazepam, compared to times with lorazepam): reduced antidepressant effect
antidepressant effect of ketamine ([2]; concomitant use of benzodiazepines, Andrashko et al., 2020): dampened the antidepressant effect
time to antidepressant response [2, 5]: significantly longer
time to depression relapse [2, 5]: significantly shorter
antidepressant response to ketamine infusions ([2]; one patient, after their benzodiazepine was withdrawn, Ford et al. (2015)): more robust
improvement in depression or suicidal ideation ([3]; ketamine alone, several times, intramuscular 0.25-1.0 mg/kg): did not experience improvement
muscle spasm after the treatment [4]: reduction in their muscle spasm

O=C1Nc2ccc(Cl)cc2C(c2ccccc2Cl)=NC1O (centres unmarked) [lorazepam]
antidepressant effect ([1]; patient with depression, 1 mg lorazepam prior to ketamine, several treatments): experienced an antidepressant effect

CC[C@H](C)[C@@H]1NC(=O)[C@H](Cc2ccc(O)cc2)NC(=O)[C@@H](N)CSSC[C@@H](C(=O)N2CCC[C@H]2C(=O)N[C@@H](CC(C)C)C(=O)NCC(N)=O)NC(=O)[C@H](CC(N)=O)NC(=O)[C@H](CCC(N)=O)NC1=O [oxytocin]
severity of depression and suicidal ideation ([3]; same patient, oxytocin 40 IU intranasally 30 minutes before ketamine in same dose range): reduced severity of depression and suicidal ideation
